Measured values: patent US10251835B2, “Cranial delivery of pharmaceuticals” (GLIA, LLC, priority 2013, dated 2019)
“Also recorded” adds a separate entry of the source.

Test system: patients with dyslexia
Experiment: Treatment of dyslexia and impaired executive brain function exacerbated by traumatic brain injury
Format: in vivo, human
Conditions: person
Experimental: A patient had been diagnosed in childhood with dyslexia. Symptoms included unstable binocular fixation while reading, the inability without compensating to find the end of one line and beginning of the next, and double overlapping perception of lines of print. They were also unable to read aloud in a fluid manner.
The individual applied a topical gel containing 4% by weight progesterone (4 mg of drug) to the forehead area.
The application was repeated twice over the next few days and the patient tested themself by reading text.
Regular treatment was continued for 10 weeks with the 4% progesterone gel applied to the forehead twice daily. The patient reported that in living with dyslexia for 52 years, they had never experienced as much stress relief in their visual system after the treatment.
After 8 weeks of treatment, the individual was asked to read aloud a complex paragraph of 8 sentences from their computer screen.
Treatment was interrupted after 10 weeks to determine the duration of benefit.
Seven years prior to initiation of progesterone topical treatment, the patient had suffered traumatic brain injury (TBI) in an auto accident. They reported exacerbation of their vision problems as a result of the accident.
After the crash they suffered from post-traumatic stress disorder triggered by loud sounds. The patient could not even listen to music because it would induce nausea. Two months after initiation of the progesterone treatment, they regained a good deal of social conformability, improved their ability to organize thoughts, eliminated their disjointed thinking, and gained the ability to write coherently.
A person who had been diagnosed with severe reading problems in third grade was later recognized as having dyslexia. Their reading problems became exacerbated by an automobile accident in 1980, following six months of coma. In general reading was a chore. However they made a concerted effort to learn to read, starting with children's books, and is now able to read regular print. Reading issues were exemplified by the need to place a ruler below each line so that they can follow the line and find the next line, and seeing letters backwards. They are not able to read small print at all. About 4 years ago their vision became worse. They were prescribed glasses that they use during periods when vision is worse than usual, whether near, intermediate, or far in distance.
A 1% progesterone topical composition was applied to forehead. […] The effect lasted from the time of application, around 7:30 pm to bedtime at around 11 pm.

[1] = 1% progesterone topical composition to forehead

Structure (SMILES): CC(=O)[C@H]1CC[C@H]2[C@@H]3CCC4=CC(=O)CC[C@]4(C)[C@H]3CC[C@]12C [progesterone]
- reading and vision (patient report) [1]: able to read without using; also recorded: distance vision also improved; also recorded: no longer bothered by the headlight glare; also recorded: Reapplication next morning restored vision improvements
- time until they could feel a clearing in their head [1]: About 5 minutes
- reading ability and visual system (patient report) (4% progesterone gel to forehead, single applications then twice daily up to 10 weeks): effect lasting for hours; also recorded: slightly better and easier reading and line tracking; also recorded: lasted for about four hours; also recorded: able to track from one end of a line of text to the beginning of the next line without using a ruler; also recorded: read aloud with less choppiness; also recorded: accurate and fluid with only one word lapse
- executive function and stress after traumatic brain injury (4% progesterone gel to forehead, two months): improved executive function; also recorded: much lower level of stress; also recorded: ability to do simple math in their head
- time until eyes relaxed into alignment (gel 4% progesterone (4 mg) to forehead): ≤ 60 s
- duration of benefit after interruption (ten days after stopping 10 weeks of 4% progesterone gel): continued benefit with only slight degradation
